Read-outs that look alike come from different tables or passages of the source.

Assay [1] relates to human urothelial carcinoma cell line NTUB1. The assay can be described thus: MTT cytotoxicity assay, NTUB1. In kind it is cell-based. As to the method: (§1) Cytotoxicity assay was performed by using C. subavenium supercritical CO2 extract obtained according to the preparation method mentioned above. […] C. subavenium supercritical CO2 extract selectively functioned on NTUB1 carcinoma cells rather than the normal cells.
(§2) Cellular cytotoxicity of tested compounds was performed by using a MTT (3-[4,5-dimethylthiazol-2-yl]-2,5-diphenyltetrazolium bromide) assay. Briefly, the cells were plated with a density of 1×10^3 cells/well in 96-well plates and incubated at 37° C. overnight before drug treatment. Cells were then cultured in the absence or presence of various concentrations (0.3, 1, 3, 6, 9, 12, 15 and 20 μM) of subamolide A at 37° C. for 72 hours. Subsequently, 50 μL of MTT (2 mg/mL in PBS) was added to each well and allowed to react for another 4 hours. Following centrifugation at 1000×g for 10 minutes, media were removed and 150 μL DMSO were added to each well. The proportions of surviving cells were determined by absorbance spectrometry at 540 nm using a microplate reader. The cell viability was expressed as the survival ratio to the un-treated control. The IC50 values of each group were calculated by the median inhibitory analysis and presented as means±SD. The combinational effects of two compounds were analyzed by median-effect analysis. To evaluate the combined effects in growth inhibition, a corresponding combination index (CI) was adopted for the measurement. The combination index of <1, =1, or >1 denotes synergic, additive, or antagonistic effect, respectively.
(Tetrazolium dyes change colour on reduction, which living cells bring about.)

The test system of assay [2] is NTUB1 cells. The assay can be described thus: Immunoblotting of cellular proteins. Format: cell-based, human.
In assay [3] the test system is NTUB1 cells. Kind of assay: Combinational cytotoxicity (MTT, combination index, median-effect analysis). Format: cell-based, human. To be noted: 24, 48, 72 hours. As to the method: as §2, with “respectively. […]” for “respectively.”
For assay [4], the system named is NTUB1 cells. Kind of assay: Cell cycle / sub-G1 apoptotic fraction by flow cytometry. In kind it is cell-based, human. Particulars: 24 hours. In general terms: In flow cytometry, cells or beads pass a laser one at a time.
Assay [5] concerns NTUB1 cells. The assay can be described thus: Intracellular ROS (DCFH-DA flow cytometry), NTUB1. Format: cell-based, human. Particulars: NTUB1, 10 μM, compared with control cells. As to the method: (§3) Production of ROS was analyzed by flow cytometry. Briefly, cells were plated in 6-well plates, and dichlorofluorescein diacetate (DCFH-DA, […]) were added to the treated cells 30 minutes prior to harvest. The cells were collected by trypsinization and washed with PBS. The green fluorescence of intracellular DCF (2′,7′-dichlorofluorescein) was then analyzed by FACScan™ flow cytometer with a 525-nm band pass filter. The ROS production efficiency (M1 ratio) was calculated as “[counts of treated sample in M1−counts of control in M1]/counts of control in M1×100”.

Assay [6] relates to normal urothelial cell line SV-HUC-1. The assay can be described thus: MTT cytotoxicity assay, SV-HUC-1. Particulars: SV-HUC-1, 72 hours; read-out: IC50 (reduction of growth). Format: cell-based, human. The protocol:
as §1
as §2, with “To evaluate the combined effects in growth inhibition, a corresponding combination index (CI) was adopted for the measurement. The combination index of <1, =1, or >1 denotes synergic, additive, or antagonistic effect, respectively.” left out

For assay [7], the system named is SV-HUC-1 cells. The assay can be described thus: Intracellular ROS (DCFH-DA flow cytometry), SV-HUC-1. In kind it is cell-based, human. To be noted: SV-HUC-1, 10 μM, compared with control cells. The protocol:
as §3

The subject of assay [8] is urothelial carcinoma cells T24. The assay can be described thus: MTT cytotoxicity assay, T24. In kind it is cell-based, human. To be noted: T24, 72 hours; read-out: IC50 (reduction of growth). The protocol: as §2
The test system of assay [9] is prostate cancer cells PC3. Kind of assay: MTT cytotoxicity assay, PC3. In kind it is cell-based, human. Particulars: PC3, 72 hours; read-out: IC50 (reduction of growth). The protocol: as §2

In the case of `N.N.[Cl][Pt][Cl]` [CDDP, cis-diamminedichloridoplatinum], the IC50 in [1] (72 hours, 1×10^3 cells/well (data not shown), read-out: IC50 to NTUB1 cells) stood at 3 µM.
On to `Nc1ccn([C@@H]2O[C@H](CO)[C@@H](O)C2(F)F)c(=O)n1` [Gem, 4-amino-1-(2-deoxy-2,2-difluoro-β-D-erythro-pentofuranosyl)-pyrimidin-2(1H)-on], for which the 50% inhibitory concentration (IC50) in [1] (Homo sapiens, NTUB1, 72 hours, 1×10^3 cells/well (data not shown), read-out: IC50 to NTUB1 cells) was 0.008 µM.
On to “(3Z,4R,5R)-3-tetradecylidene-4-hydroxy-5-methoxy-5-methylbutanolide [subamolide A]”, for which, in assay [2] (10 μM), the “Bax/Bcl-2 ratio, fold of change” value was “two-fold increase”. Also, the “cytochrome c released from mitochondria to cytosol, fold of change” value in assay [2] (10 μM) turned out to be 2.3 folds. In addition, in assay [2] (10 μM, 24 hours, not p38 or JNK), the “ERK1/2 activation (immunoblot)” value is recorded as “specifically activated”. Further, the “p53 protein and phosphorylation of p53 at serine 15” value in [2] (NTUB1 cells) was “induced”. Moreover, the “pro-caspase 3 and 116 kDa full length PARP proteins” value in assay [2] (with increased concentration) was “decreased”. The “combinational effect with CDDP” value in [3] (subamolide A 0, 1, 5, 10 μM + CDDP 1 and 3 μM) was “synergism”. Besides, the “combinational effect with Gem” value in assay [3] (subamolide A 0, 1, 5, 10 μM + Gem 2 and 8 nM) was “synergism”. The sub-G1 apoptotic fraction in assay [4] (1 μM) turned out to be 5%; in assay [4] (5 μM), 10.8%; in [4] (10 μM), 21.9%. The results for the “ROS M1 ratio” value in [5] and in assay [7] were −14.7±0.99% and −11.6±1.41%, respectively. Moreover, the concentration for half-maximal inhibition (IC50) in assay [6] was 18.1 ± 1.03 µM; in assay [1] (NTUB1, 72 hours, read-out: IC50 (reduction of growth)), 7.26 ± 0.67 µM; in assay [8], 7.6 ± 0.96 µM; in assay [9], 10.1 ± 0.59 µM.

Usually IC50 stands for the point on the concentration scale where inhibition reaches its midpoint.

The values are drawn from patent US8669377B2, “Anti-human urothelial carcinoma of supercritical carbon dioxide extract of Cinnamomum subavenium, and the preparation process and uses” (Kaohsiung Medical University, priority 2011, dated 2014).
